According to US20190091173A1, “METHOD OF […] BETWEEN […]” (ZOGENIX INTERNATIONAL LIMITED, priority 2017, published 2019):

Legend:
[1] = test system: convulsive seizures in subjects with Dravet syndrome; assay: Study 1 (ZX008-1501/ZX008-1502), Phase 3, randomized, double-blind, placebo-controlled; format: in vivo, human; settings: 0.2 mg/kg/day, end of T+M Period, SD 140.46, p=0.735
Procedure: The first 119 subjects to be randomized in both identical studies combined were analyzed and reported as Study 1 (FIG. 1), covered by a Statistical Analysis Plan (SAP).
Primary and key secondary endpoints in the Study 1 SAP were pre-determined. All patients were treated twice per day over a period of 14 weeks using an oral syringe to administer the formulation. The treatment period included a two-week titration period and a 12-week maintenance period.
The initial results of Study 1 are outlined below. The randomized, double blind, placebo controlled, Phase 3 study enrolled 119 patients across sites in the United States, Canada, Europe and Australia. The median age of patients was 8 years, the mean age of patients was 9 years (range, 2-18 years) (FIG. 2).
Patients were titrated to their target dose over two weeks, and then remained at that fixed dose for 12 weeks. The mean baseline convulsive seizure frequency across the study groups was approximately 40 seizures per month. 110 (92%) patients completed the study (85% 0.8 mg/kg/day; 100% 0.2 mg/kg/day; 93% placebo). […]
The mean number of convulsive seizure free days, defined as a day for which diary data are available and no convulsive seizures have been reported, was determined for each treatment group during the Baseline and T+M Periods. […]

[2] = test system: seizures in patients with Dravet syndrome; settings: long-term fenfluramine treatment; cited from earlier work

SMILES: CCNC(C)Cc1cccc(C(F)(F)F)c1 (stereo not shown) [Fenfluramine, 3-trifluoromethyl-N-ethylamphetamine]
- reduction from Baseline in non-convulsive seizures (all types) per 28 days [1]: 9.7%
- effect on types of seizures [2]: effectively reduced the incidence of all types of seizures
- reduction in seizures [2]: 75%
- test subjects in seizure-free condition [2]: 66.6%
